According to PubChem BioAssay AID1996:
Converted amounts (≈) assume the structure as drawn.

Conditions: buffer; pH 7.4; 200.0 µM

Row | Compound | solubility kinetic [mg/mL]
1 | Cn1nc(C(=O)NC2CCC(O)CC2)c2ccccc2c1=O (centres undefined) | > 0.0452
2 | NS(=O)(=O)c1ccc(CCNC(=O)C2CCCO2)cc1 (centres undefined) | > 0.0448
3 | Cc1ccc(N2CC(O)=C(c3ccccc3)C2=N)cc1 | > 0.0396
4 | O=C(CCc1ccc(S(=O)(=O)N2CCOCC2)cc1)OCC(=O)c1ccccc1F | 0.0496 (≈ 114 µM)
5 | Cc1nc(C)c(C(=O)OC(C)C(=O)Nc2ccc(F)cc2)s1 (centres undefined) | > 0.0484
6 | CCc1ccc(NC(=O)COC(=O)c2cccs2)cc1 | 0.0028 (≈ 9.68 µM)
7 | C[C@@H](C(=O)OCC(=O)c1ccccc1)N1C(=O)C2CCCCC2C1=O (some centres undefined) | > 0.0515
8 | COc1ccccc1S(=O)(=O)Nc1ccc2nc(C)sc2c1 | 0.0104 (≈ 31.1 µM)
9 | COc1ccccc1N1CCN(c2ccc([N+](=O)[O-])cn2)CC1 | 0.0162 (≈ 51.5 µM)
10 | C=CCN1C(=O)N(CC=C)c2cccc3cccc1c23 | 0.0004 (≈ 1.51 µM)
11 | O=C(CCC(=O)N1CCOCC1)c1ccc(F)cc1 | > 0.0398
12 | O=C(NCc1ccccn1)C1CC(c2ccccc2Cl)=NO1 (centres undefined) | > 0.0474
13 | COc1ccccc1OCCCC(=O)NCc1ccco1 | > 0.0434
14 | CCOc1ccccc1OCCC(=O)Nc1ccc2c(c1)OCO2 | > 0.0494
15 | O=S(=O)(Nc1ccc2ccccc2n1)c1ccc2c(c1)CCO2 | 0.0459 (≈ 141 µM)
16 | CSCCOC(=O)C1=C(C)NC(=O)NC1c1ccc2c(c1)OCO2 (centres undefined) | > 0.0526
17 | CCCOc1ccc(-c2nc[nH]c2[N+](=O)[O-])cc1 | 0.0005 (≈ 2.02 µM)
18 | Brc1cccc(C=Nc2cccc3ncccc23)c1 | 0.0122 (≈ 39.2 µM)
19 | Fc1ccc(-c2onc3ccc(C4OCCO4)cc23)cc1 | < 0.0006
20 | Cc1cc(Cl)ccc1OC(C)C(=O)NC(C)C1CCCO1 (centres undefined) | > 0.0468
21 | COc1ccc(NS(=O)(=O)c2cn(C)cn2)cc1Cl | 0.017 (≈ 56.3 µM)

Row | Compound | solubility kinetic [mg/mL]
22 | O=C(CSc1ncnc2scc(-c3ccccc3)c12)NC1CCS(=O)(=O)C1 (centres undefined) | 0.0586 (≈ 140 µM)
23 | CC[N+](C)(C)c1cccc(O)c1.[Cl-] | > 0.0303
24 | Cc1cc(C)nc(Nc2ccc(Br)cc2C(=O)O)n1.Cl | > 0.0538
25 | N#CC1(CCCN2CCCCC2)c2ccccc2CCc2ccccc21.O=C(O)C(=O)O | > 0.0652
26 | O=C(c1cc2cc(F)ccc2[nH]1)N1CCC2(CC1)OCCO2 | 0.0202 (≈ 66.4 µM)
27 | CS(=O)(=O)CCSc1ncccc1C(=O)NCc1cccs1 | 0.0531 (≈ 149 µM)
28 | CCN(Cc1ccccc1)C(=O)COc1ccccc1 | > 0.0404
29 | CC(=O)NCCc1ccc(C(=O)COC(=O)c2cccn2C)cc1 | > 0.0493
30 | CC(=O)OCc1ccccc1Sc1ccccc1C(=O)NCc1ccccc1 | 0.0211 (≈ 53.9 µM)
31 | O=C1CCc2cc(S(=O)(=O)Nc3ccccc3)cc3c2N1CC3 | > 0.0493
32 | Cc1ccc(C(=O)OCC(=O)NCCN2C(=O)CSC2=O)cc1[N+](=O)[O-] | > 0.0572
33 | O=C(CCc1ccccc1)NC1CCCc2ccccc21 (centres undefined) | 0.0192 (≈ 68.7 µM)
34 | CCCCn1c(SCC(=O)N2CCOCC2)nc2ccccc2c1=O | > 0.0542
35 | CCN(Cc1ccccc1)C(=O)c1cc2cc(OC)c(OC)cc2[nH]1 | < 0.0004
36 | CC(=O)NCCc1nc2cc(NC(=O)Nc3ccccc3)ccc2n1C | > 0.0527
37 | NC(N)=NC(N)=Nc1cccc2ccccc12 | > 0.0341
38 | Cc1ccc(NC(=O)C(C)OC(=O)CCC2CCCCC2)cc1 (centres undefined) | 0.0041 (≈ 12.9 µM)
39 | Cc1cccn2c(=O)nc(SCC(=O)NC3CCCCC3)nc12 | > 0.0499
40 | CC(C)(C)c1csc(NC(=O)CSC2=NCCS2)n1 | 0.0106 (≈ 33.6 µM)
41 | C=CCNC(=O)c1ccccc1CCc1ccccc1 | > 0.0398
42 | O=C(Nc1nccs1)c1cccc(NC(=O)C(F)(F)F)c1 | 0.0388 (≈ 123 µM)

Row | Compound | solubility kinetic [mg/mL]
43 | NC(=O)c1cc2c(s1)-c1cc(Cl)ccc1SC2 | 0.0008 (≈ 2.84 µM)
44 | Cc1cc(C)nc(SCC(=O)N2CCc3ccccc32)n1 | 0.0034 (≈ 11.4 µM)
45 | CCc1ccc(CN(C)C(=O)c2cc(=O)c3ccccc3o2)cc1 | 0.035 (≈ 109 µM)
46 | COc1cc(NC(=O)CSCc2ccccc2)c(C(=O)O)cc1OC | 0.0526 (≈ 146 µM)
47 | COc1cccc(N2C(=O)CC(N3CCc4ccccc4C3)C2=O)c1 (centres undefined) | 0.0504 (≈ 150 µM)
48 | COc1ccc(C(=O)NCCCN2CCOCC2)cc1 | > 0.0418
49 | Cc1ccnc(SCC(=O)NC2CC2)n1 | > 0.0335
50 | O=C(NCc1ccco1)C1CCCN1C(=O)Nc1ccc(Cl)cc1 (centres undefined) | 0.0034 (≈ 9.78 µM)
51 | CCCCCC1=NN2C(=O)CC(=O)N=C2S1 | > 0.0359
52 | Cc1ccc(C(=O)OCC(=O)NC2CCS(=O)(=O)C2)c(C)c1 (centres undefined) | > 0.0488
53 | O=C(CNc1ccccc1)Nc1cccc2ccccc12 | 0.0034 (≈ 12.3 µM)
54 | COc1ccc(CN=C(N)N=C(N)N)cc1Cl.Cl | > 0.0438
55 | COC(=O)c1sccc1N/C=C(\C#N)S(=O)(=O)C(C)(C)C | 0.0023 (≈ 7 µM)
56 | CCc1c(C(=O)OCc2ccccc2)[nH]c(C)c1C | 0.0013 (≈ 5.05 µM)
57 | Cc1nc2cc(NC(=O)Nc3cccc(F)c3)ccc2n1C | 0.0033 (≈ 11.1 µM)
58 | COc1ccc(S(=O)(=O)Nc2ncccn2)cc1 | 0.0231 (≈ 87.1 µM)
59 | O=[N+]([O-])c1ccccc1S(=O)(=O)N1CCCC(C(F)(F)F)C1 (centres undefined) | 0.0031 (≈ 9.16 µM)
60 | COc1cc(SC)ccc1C(=O)OCC(=O)NC(=O)NC(C)C | 0.0109 (≈ 32 µM)
61 | Cc1ccc(C)c(S(=O)(=O)NCCC(=O)N2CCCC(C(N)=O)C2)c1 (centres undefined) | > 0.0551
62 | Cc1ccc(NC(=O)C2CC2)cc1S(=O)(=O)N1CCOCC1 | > 0.0487
63 | O=C(Nc1ccc(O)cc1)N1CCOCC1 | > 0.0333

Row | Compound | solubility kinetic [mg/mL]
64 | Cl.Nc1ccn([C@H]2C[C@H](O)[C@@H](CO)O2)c(=O)n1 | > 0.0396
65 | CC(=O)N(Cc1ccccc1)Cc1nc2sc(C)c(C)c2c(=O)[nH]1 | 0.0475 (≈ 139 µM)
66 | COc1cccc(OP(=O)(Nc2ccccc2)Oc2cccc(OC)c2)c1 | < 0.0008
67 | O=C(Nc1ccc([N+](=O)[O-])cc1)OCCc1ccccn1 | 0.0006 (≈ 2.09 µM)
68 | O=C(NC(=O)c1ccccc1O)c1ccc(C(F)(F)F)cc1 | 0.0023 (≈ 7.44 µM)
69 | CCCC(=O)Oc1cccc(C2NC(=O)c3ccccc3O2)c1 (centres undefined) | 0.0188 (≈ 60.4 µM)
70 | CSc1nc2ccc(NC(=O)c3ccccn3)cc2s1 | 0.0005 (≈ 1.66 µM)
71 | C/C(=N\N1CCN(C)CC1)c1ccc(OC(F)F)cc1 | > 0.0425
72 | COc1cc(NC(=O)CCCN2C(=O)NC(C)(C)C2=O)cc(OC)c1 | 0.0496 (≈ 142 µM)
73 | CC1CCCCC1NC(=O)COC(=O)c1cccn1C (centres undefined) | > 0.0418
74 | O=C(NCN1CCN(c2ccccc2)CC1)c1cnccn1 | > 0.0446
75 | CCCCCC(=O)OC(CN1CCCC1=O)C[NH+]1CCCCCC1.[Cl-] (centres undefined) | > 0.0562
76 | Cc1ccc(C23CC4CC(CC(C(N)=O)(C4)C2)C3)cc1 | 0.0166 (≈ 61.6 µM)
77 | CCn1ccc(C(=O)N2CCN(c3ncccn3)CC2)n1 | > 0.043
78 | COc1ccc(S(=O)(=O)NC2CC2)cc1Br | > 0.0459
79 | Cc1cccn2c(=O)nc(SCC(=O)N3CC(C)OC(C)C3)nc12 (centres undefined) | 0.0517 (≈ 148 µM)
80 | CC1CC(C)CN(C(=O)COc2ccc([N+](=O)[O-])cc2Cl)C1 (centres undefined) | 0.011 (≈ 33.7 µM)
81 | O=C(Cc1csc(-c2ccccc2)n1)NCc1cccs1 | 0.0156 (≈ 49.6 µM)
82 | CCC(C(=O)OC)n1c(-c2ccccc2)nc2ccccc2c1=O (centres undefined) | 0.0015 (≈ 4.65 µM)
83 | Cc1cc(-c2nc3ccccc3[nH]2)ccc1N | > 0.0335
84 | Cc1ccc(CC2C(=O)N(c3ccc(F)cc3)C(=O)C2C)cc1 (centres undefined) | 0.0033 (≈ 10.6 µM)
